Earlier results, collected in patent US20240285640A1, “COMBINATION THERAPY FOR TREATING PIK3CA-MUTATED CANCER” (ADLAI NORTYE BIOPHARMA CO., LTD., priority 2020, published 2024).

Key:
colorectal cancer = conditions: combined with radiotherapy and chemotherapy; Wyrwicz et al., ESMO2019
[1] = test system: immunosuppressive cells in the tumor microenvironment; conditions: preclinical studies; by inhibiting the PGE2/EP-4 signaling pathway
advanced solid tumors = conditions: phase I FIH, a variety of advanced solid tumors
[2] = test system: breast cancer caused by PI3K/PIK3CA mutations; conditions: patients; Campone M et al. 2018

Compound	clinical efficacy (colorectal cancer)	reduction of immunosuppressive cells in the tumor microenvironment [1]	clinical effect as single drug (advanced solid tumors)	clinical efficacy [2]
C[C@H](NC(=O)c1c(C(F)F)nn(C)c1Oc1cccc(C(F)(F)F)c1)c1ccc(C(=O)O)cc1 [AN0025]	strong clinical efficacy	effectively reduce	certain single-drug effect	–
Nc1cc(C(F)(F)F)c(-c2cc(N3CCOCC3)nc(N3CCOCC3)n2)cn1 [AN2025, Buparlisib]	–	–	–	effective
